Series [1] concerns ΔF508-CFTR (C127-ΔF508-low cells). The series can be described thus: SPQ halide efflux assay, cAMP-stimulated Cl- channel activity, C127-ΔF508-low cells. In kind it is cell-based. Conditions: FIG. 1E.
A short description of series [2]: toxicity of DSG to C127-ΔF508-low cells. Conditions: mouse, read-out: concentrations toxic to the cells. In kind it is cell-based, murine. The text has this: C127-ΔF508-low (mouse mammary tumor) is a recombinant cell line stably transfected with the cDNA encoding the mutant ΔF508-CFTR (Cheng et al. (1995), supra.; Marshall et al. (1994), J. Biol. Chem. 269: 2987-2995). […] C127-mock is a cell line that has been stably transfected with the backbone of the expression vector used to generate C127-ΔF508-low (Cheng et al. (1995), supra.). LLCPK1 -ΔF508 (pig kidney epithelial) is a recombinant cell line stably expressing low levels of the mutant ΔF508-CFTR protein (Marshall et al., supra.). The details of the generation, characterization and routine propagation of these cell lines has been described (Cheng et al. (1995), supra.; Marshall et al., supra.).
(§1) Cells were treated with up to 100 μg/ml of DSG for up to 72 h. Concentrations of DSG >50 μg/ml were toxic to most of the cell types tested. Since DSG is modified by polyamine oxidase present in fetal bovine serum (Tepper et al., supra.), cells were routinely replenished with fresh medium containing DSG and aminoguanidine every 24 h. As a control in some experiments, C127 cells were also treated with 5 mM sodium butyrate for 24 h. to enhance expression of ΔF508-CFTR (Cheng et al. (1995), supra.). As another control, cells were cultured at 23° C. for 24 to 48 h. to facilitate folding of the mutant ΔF508-CFTR at the ER.

Another series has as its system immune responses. Conditions: T-cell dependent assays and models; cited from earlier work.
A further series has as its system ΔF508-CFTR (IBE-1 cells). The series can be described thus: whole cell patch-clamp analysis of IBE-1 cells. In kind it is cell-based, human. Conditions: for reversal potential: DSG-treated cells. On the procedure: The bath (extracellular) solution contained: 140 mM N-methyl-Dglucamine (NMDG), 2 mM CaCl2, 1 mM MgCl2, 0.1 mM CdCl2, 10 mM HEPES, 4 mM CsCl, and 10 mM glucose, pH 7.4. These solutions were designed so as to study only currents flowing through Cl^- channels, since Cl^- was the only significant permeant ion in the solutions. Furthermore, Ca^2+ -activated Cl^- currents were minimized by inclusion of 10 mM EGTA in the intracellular solution and 100 μM of Cd^2+ in the extracellular bath. K^+ currents were minimized by including 20 mM TEA in the intracellular solution. Aspartate was used as the replacement anion in experiments in which extracellular Cl^- concentration was changed. Forskolin (10 μM), IBMX (100 μM), 8-(4-chlorophenylthio)-cAMP (cpt-cAMP, 200 μM), diphenylamine carboxylic acid (DPC, 200 μM), UTP (100 μM), and ionomycin (1 μM) were added to the bath solutions as indicated. Current recordings were made from the same cells before, during, and after exposure to the solutions containing the different agonists or inhibitors. All experiments were performed at room temperature (22° C.). Currents were filtered at 2 kHz. Data acquisition and analysis were performed using the PCLAMP 5.5.1 software (Axon Instruments, Foster City, Calif.).
In all of the successfully patched CF IBE-1 cells from 6 separate coverslips no activation of whole cell currents in response to forskolin (10 μM) plus IBMX (100 μM) or cpt-cAMP (200 μM) was detected (FIG. 10A and 10B), indicating no endogenous CFTR channel activity in these cells. In contrast, in 7 out of 19 successful patched cells from 19 separate coverslips treated with DSG (10 μM) for 48 to 72 hrs. a significant activation of whole cell currents was observed. As all the other cells, the holding potential was 0 m, which inactivated the voltage-gated Na^+ and Ca^++ channels. After addition of 200 μM cpt-cAMP to the bath solution, voltage steps from the holding potential to between -100 mV and 80 mV in 20 mV increments activated whole cell currents. In these experiments, the intracellular and extracellular solutions were designed to study only current flowing through Cl^- channels, since Cl^- is the only significant permeant ion in solution. Ca^++ and K^+ currents were minimized by 100 μM of extracellular Cd^++ and 20 mM of intracellular TEA respectively. Furthermore, the currents were ascertained to be Cl^- currents from change in the reversal potential which was shifted from 1.1±1.5 to 47.3±6.1 mV by reducing extracellular Cl^- from 150 mM to 20 mM.
It is highly unlikely that Ca^++ -activated Cl^- was recorded in these experiments because of the presence of 10 mM intracellular EGTA and 100 µM extracellular Cd^++. […] Special attention was paid to detect possible contribution of the outwardly rectifying Cl^- channel (ORCC) to the whole cell currents. Because of a possible upregulatory role of CFTR, ORCC can be activated in normal but not in CF airway epithelial cells (Hwang et al. (1989), supra.; Li et al. (1988), Nature 331: 358-360; Morris and Frizzel (1993); Am. J. Physiol.; Schwiebert et al. (1994), Am. J. Physiol.).
Background: The patch-clamp technique gives a direct electrical read-out from membranes.

Series [3] is described as follows: toxicity of DSG to cells in culture. Conditions: up to 72 h; read-out: concentrations toxic to most of the cell types tested. In kind it is cell-based. How it is done: as §1
CFT1 and JME/CF15 are two immortalized human CF airway epitheliavarill lines which contain the ΔF508 variant (Jefferson et al. (1990), Am. J. Physiol. 259: L496-L505; Yankaskas et al., (1993), Am. J. Physiol. 264: C1219-C1230). Cells were treated with up to 100 μg/ml of DSG for up to 72 h. Concentrations of DSG >50 μg/ml were toxic to most of the cell types tested. Since DSG is modified by polyamine oxidase present in fetal bovine serum (Tepper et al., supra.), cells were routinely replenished with fresh medium containing DSG and aminoguanidine every 24 h. As a control in some experiments, cells were cultured at 23° C. for 24 to 48 h. to facilitate folding of the mutant ΔF508-CFTR at the ER. […]

“Also recorded” adds a separate entry of the source. Where only a bound is given, the exact number is not on record here.

As to `N=C(N)NCCCCCCC(=O)NC(O)C(=O)NCCCCNCCCN` (centres unmarked) [DSG, deoxyspergualin], the “percentage of mature CFTR produced from CFTR-ΔF508 upon exposure to reduced temperatures” value in series [1] is “increases upon exposure to reduced temperatures”. The MCC at 72 h in series [2] and in series [3] was more than 50 µg/mL throughout. Moreover, the “immunosuppressive activity, in words” value with immune responses is given as “potent immunosuppressive activity”. In addition, in the series on ΔF508-CFTR (IBE-1 cells) (DSG (10 μM) 48 to 72 hrs, cAMP stimulation), the “successfully patched cells with significant activation of whole cell currents” value was 7 out of 19. The reversal potential with ΔF508-CFTR (IBE-1 cells) (extracellular Cl- 150 mM) was determined as 1.1±1.5 mV; in the series on ΔF508-CFTR (IBE-1 cells) (extracellular Cl- reduced to 20 mM) it was 47.3±6.1 mV. The “whole cell currents, in words” value with ΔF508-CFTR (IBE-1 cells) (IBE-1 cells) was “resembled those of wild-type CFTR in epithelial cells; also recorded: almost identical to that recorded in transduced CF IBE-1 cells”.

(Values after patent US5985824A, “Methods and compositions for treating cystic fibrosis” (priority 1997, dated 1999).)
